We go through one molecule from publication PMC3516535, “Rhesus Macaque Theta Defensins Suppress Inflammatory Cytokines and Enhance Survival in Mouse Models of Bacteremic Sepsis” (PLoS ONE, 2012).

Data set [1] deals with adult chimpanzees.
For data set [2], the system named is human EDTA-anti-coagulated blood diluted 1∶10. Kind of data set: TNF release assay in stimulated diluted whole blood (ELISA). Format: cell-based. On the technique in general: In an ELISA, binding on a coated surface is turned into a signal by an enzyme label.

Each structure is given as a SMILES string. Bridge positions count the residues as written; N and C are the ends. Peptide text beside a SMILES is read from it.

For the molecule `CC[C@H](C)[C@@H]1NC(=O)[C@@H]2CSSC[C@H](NC(=O)[C@H](CCCNC(=N)N)NC(=O)[C@@H]3CSSC[C@H](NC1=O)C(=O)N[C@@H]([C@@H](C)O)C(=O)N[C@@H](CCCNC(=N)N)C(=O)NCC(=O)N[C@@H](Cc1ccccc1)C(=O)N3)C(=O)N[C@@H](CC(C)C)C(=O)N[C@H]1CSSC[C@H](NC(=O)[C@H](C(C)C)NC(=O)CNC(=O)[C@H](CCCNC(=N)N)NC(=O)[C@H](CCCNC(=N)N)NC1=O)C(=O)N[C@@H](CCCNC(=N)N)C(=O)N2` [RTD-1] (cyclo(GFCRCLCRRGVCRCICTR); disulfide 3-16, 5-14, 7-12), the “clinical and injection site effects” value in data set [1] (escalating i.v. doses (0.2 to 3.0 mg/kg over 14 days), two animals) is given as “No clinical or injection site effects were observed”. Moreover, the “comprehensive metabolic panels and complete blood counts with differential” value in data set [1] (escalating i.v. doses, all time points incl. days 21, 28, 60) is “no abnormalities”. In addition, the “anti-RTD-1 antibody (dot blot immunoassay)” value in data set [1] (serum samples after escalating i.v. doses, two animals) was “No anti-RTD-1 antibody was detected”. Also, in data set [2], the TNF-release inhibition is recorded as 70–80% and the “reduction of TNF levels” value is 46–93%.
